Here are results for 32 compounds from article PMC12040169 (PLOS Biology, 2025).

A short description of the data set: in vitro. To be noted: human, hela cells, % viability.

Each structure is given as a SMILES string.

The viability is a read-out of living cells in per cent, often relative to untreated cells.

As to `COCCn1cnnc1C(C)NC(=O)N(C)Cc1nc2ccccc2s1` (centres unmarked) [CBK307427], the viability at 28.5 h, 10 µM came to 88.2%.
As for `CSc1nccc(N2CCC(NCCn3c(C)cc(C)nc3=O)CC2)n1` [CBK307070], the viability at 28.5 h, 10 µM was determined as 85.3%.
Under `CCCCc1ccc(NC(=S)NN2CCN(C)CC2)cc1` [CBK265741] stands 97.1%.
For `Clc1ccc(CN2CCC(Oc3cncc(OCc4cccnc4)n3)C2)cc1Cl` (centres unmarked) [CBK084448] the value was 84%; for `Cc1ccc(CN2CCC(O)(Cn3ccc4ncccc43)CC2)o1` [CBK284751], 97.7%.
Under `O=C1CNC(=O)C2(C/C=C/C[C@H]3COCC[C@@H]3N1)CCN(Cc1ccc(Cl)cn1)CC2` [CBK292132] stands 91%.
As to `Fc1cccc(NCc2ccccc2)n1` [CBK000149], the viability at 28.5 h, 10 µM was found to be 94.9%.
`COc1cc(C(=O)Nc2ccccc2C(=O)N2CCN(C)CC2)cc(OC)c1OC` [CBK269803]: the viability at 28.5 h, 10 µM came to 88.5%.
On to `Cc1ccc(C(=O)N2CCN(C(=O)CN3CCN(C)CC3)C2)cc1` [CBK024841C], for which the viability at 28.5 h, 10 µM is 76.4%.
In the case of `COc1cc(CNC(=O)NC(=O)C2CCN(CCc3cccc(O)c3)CC2)cc(OC)c1OC` [CBK034857], the viability at 28.5 h, 10 µM amounted to 93.2%.
In the case of `CC(NC(=O)N1CCCN(Cc2ccccn2)CC1)c1cnn(C)c1` (centres unmarked) [CBK307537], the viability at 28.5 h, 10 µM was 102%.
Take `O=C(COc1ccccc1)N1CCN(Cc2ccncc2)CC1` [CBK072595]: the viability at 28.5 h, 10 µM is 94.6%.
Under `c1ccc2c(N3CCCCC3)cnnc2c1` [CBK066897] stands 99.2%; under `CCCC/C=C/c1cncc(NC2CCC(N)CC2)n1` (centres unmarked) [CBK037827], 97.2%.
For `Cc1nn(CC(=O)N(C)Cc2cnn(C)c2)c(=O)c2ccccc12` [CBK305701] the value was 103%.
For the compound `COc1ccc(/C(C)=N\NC(=O)c2cccc(Br)c2)cc1` [CBK261612], the viability at 28.5 h, 10 µM is 100%.
Under `C=CCn1c(S)nnc1COc1cccc2ccccc12` [CBK267292] stands 89.4%.
Consider `O=C(c1ccc([N+](=O)[O-])cc1)C12CN3CN(CN(C3)C1)C2` [CBK011238], for which the viability at 28.5 h, 10 µM worked out at 87.1%.
For `CC/C(=C/c1sc2ccc3ccccc3c2[n+]1CCCS(=O)(=O)[O-])SC` [CBK260901] the value was 104%; for `CCn1c(=O)n(CC(=O)Nc2ccccc2F)c2cccnc21` [CBK283897], 102%; for `CN1CCN(C(=O)CCc2nc(-c3ccc(Cl)cc3)no2)CC1` [CBK268304], 117%.
Under `Cc1cccc(C(=O)Nc2cc(NC(=O)c3cccc(C)c3)cc(C(=O)O)c2)c1` [CBK269649] stands 98%.
Regarding `CN(C)CCN(Cc1cccs1)Cc1cc(Cl)ccc1O` [CBK282847], the viability at 28.5 h, 10 µM stood at 86.2%.
Turning to `Cc1ccc(S(N)(=O)=O)cc1N` [CBK024851], the viability at 28.5 h, 10 µM was determined as 109%.
For `COc1ccc(NC2c3cccc4cccc(c34)C2NS(=O)(=O)c2ccccc2)cc1` (centres unmarked) [CBK264075] the value was 97.4%.
Regarding `Cc1csc(N2CCC(Nc3cc(CO)ccc3Cl)CC2)n1` [CBK306440], the viability at 28.5 h, 10 µM came out at 89.7%.
Turning to `O=C(NC(c1ccccc1)c1ccco1)C1CCN(C(=O)CCC2CCCC2)CC1` (centres unmarked) [CBK059887], the viability at 28.5 h, 10 µM worked out at 90.4%.
For `COc1ccc(OCCNC(=O)c2cc(Br)cnc2N2CCOCC2)cc1` [CBK076214] the value was 88%.
For `COc1ccc(Cn2nc3nnc(-c4ccccc4)c(-c4ccccc4)n3c2=O)cc1` [CBK286180] the value was 88.8%; for `O=C(NCc1nc2ccccc2[nH]1)c1cc(Br)cnc1NCCOc1ccccc1` [CBK076220], 104%; for `O=C1CCC(=O)N1CCOc1nccnc1OC1CCN(Cc2ccccc2-c2ccccc2)CC1` [CBK084344], 110%.
Turning to `CCS(=O)(=O)Nc1ccc(C(=O)N2CCN(c3ccccc3)CC2)cc1` [CBK304345], the viability at 28.5 h, 10 µM stood at 112%.
